In patent US12409172B2, “Dosage regimen” (UNION therapeutics A/S, priority 2023, dated 2025):

Key:
[1] = system: adults with moderate-to-severe plaque-type psoriasis; assay: Phase 2b dose-ranging study in psoriasis (Example 3): efficacy (PASI), incl. body-weight sub-group and post-hoc analysis; format: in vivo, human
Text: • Percentage change in Psoriasis […] and Severity Index (PASI) score from Baseline at Week 16. Key Secondary Endpoints • Patients achieving 75% reduction in PASI (PASI75) response at Week 16. • Patients achieving a score of Clear (0) or Almost Clear (1) and an at least 2-point improvement in Investigator Global Assessment (IGA) at Week 16. […] Safety Endpoints: • The occurrence, severity, and seriousness of treatment-emergent adverse events (TEAEs) reported over the 16-week Treatment Period and the 4-week Follow-up Period. • Changes from Baseline in physical examination; vital sign measurements (body temperature, respiration rate, heart rate, and systolic and diastolic blood pressure measurements); and body weight over the 16-week Treatment Period and the 4-week Follow-up Period. • Changes from Baseline in electrocardiogram (ECG) findings over the 16-week Treatment Period and the 4-week Follow-up Period. • Changes from Baseline in safety laboratory values (haematology, serum chemistry, and urinalysis) over the 16-week Treatment Period and the 4-week Follow-up Period. • Hospital Anxiety and Depression Scale at each visit except Week 2. • Columbia-Suicide Severity Rating Scale (C-SSRS) at each visit except Weeks 1 and 2. Exploratory Endpoints: • Change from Baseline in Physician's Global Assessment of Fingernails (PGA-F) at Week 16. • Change in Scalp-Specific Investigator Global Assessment (ss-IGA) from Baseline at Week 16 in the subgroup of patients with Baseline score of at least 2 (mild scalp psoriasis). • Change from Baseline of scalp itch Numeric Rating Scale (NRS) at Week 16 in the subgroup of patients with Baseline score of at least 4 on the 11-point NRS. • Change from Baseline in joint pain NRS at Week 16 in patients with psoriatic arthritis (PsA) and a Baseline joint pain score of at least 4. • Change in cardiovascular risk factors at Week 16. The following parameters will be collected: weight, body mass index, waist and hip circumferences, blood pressure, fasting serum glucose, triglycerides, cholesterol (total and high-density lipoprotein/low-density lipoprotein fractions), and C-reactive protein. • Change from Baseline in skin biomarkers at Week 16 collected via tape stripping and analysed using proteomic methods. • Plasma levels of the drug and its metabolites at scheduled visits. Study Design
A multicentre, randomized, double-blind, placebo-controlled, parallel group, Phase 2b dose-ranging study designed to assess the efficacy and safety of modified-release orismilast compared with placebo in adult patients with moderate-to-severe plaque-type psoriasis. Efficacy and safety outcomes will be evaluated to select an appropriate orismilast dose for subsequent Phase 3 studies.
After a Screening visit up to 28 days before Baseline, 202 patients were assigned randomly in a 1:1:1:1 ratio to receive 1 of the 3 orismilast doses (20 mg, 30 mg, or 40 mg) or placebo twice daily (BID) for 16 weeks, with a 4-week Follow-up visit. Administration will begin at Baseline with a dose titration period. The maximum duration of study participation was approximately 24 weeks.
At Baseline and each visit from Week 4 onwards, PASI, BSA, IGA, and PSS were assessed. Quality of life was assessed by administration of DLQI at Baseline and at Weeks 16 and 20 visits. Additional efficacy parameters include: an ss-IGA, a Physician Global Assessment of fingernail psoriasis (PGA-F), and patient's joint pain NRS for those with a diagnosis of PsA. These parameters were assessed at Baseline and Weeks 16 and 20. Safety evaluations include adverse events (Aes), laboratory and vital sign assessments, physical examinations, as well as mood change evaluation by patient (Hospital Anxiety and Depression Scale) and suicidal ideation evaluation by Investigator (C-SSRS). A panel of cardiovascular risk factors were assessed at Baseline and Week 16. […]

[2] = Chinese healthy volunteer study CIB1353A101: PK; details: human, in vivo, oral; CIBI3S3A101 (D1 = 10 mg); N 18; read-out: AUClast, NCA GM (CV %)
[3] = post-hoc group 20 mg BID (<100 kg)/30 mg BID (≥100 kg), NRI

**Q.** For `O=C(Cc1c(Cl)c[n+]([O-])cc1Cl)c1ccc(OC(F)F)c2c1OC1(CCS(=O)(=O)CC1)O2` [orismilast, 2-(3,5-dichloro-1-oxidopyridin-1-ium-4-yl)-1-[7-(difluoromethoxy)-1′,1′-dioxospiro[1,3-benzodioxole-2,4′-thiane]-4-yl]ethanone], which “mean percentage change in PASI from baseline to Week 16” value (from here on “mean percentage change in PASI”) ([1]; 20 mg BID) is on record?
**A.** −52.6%

**Q.** And the PASI-75 responders ([1]; 20 mg BID, NRI)?
**A.** 35%

**Q.** And the PASI-90 responders ([1]; 20 mg BID, NRI)?
**A.** 23%

**Q.** And the PASI-100 responders ([1]; 20 mg BID, NRI)?
**A.** 8%

**Q.** What about the “mean percentage change in PASI” value ([1]; 30 mg BID) of the same compound?
**A.** −61.2%

**Q.** And the PASI-75 responders ([1]; 30 mg BID, NRI)?
**A.** 44%

**Q.** What about the PASI-90 responders ([1]; 30 mg BID, NRI) of the same compound?
**A.** 20%

**Q.** What about the PASI-100 responders ([1]; 30 mg BID, NRI) of the same compound?
**A.** 8%

**Q.** And the “mean percentage change in PASI” value ([1]; 40 mg BID)?
**A.** −63.7%

**Q.** And the “efficacy of post-hoc group 20 mg BID (<100 kg)/30 mg BID (≥100 kg) relative to all pre-specified treatment arms” value ([1]; NRI)?
**A.** improved

**Q.** What about the “efficacy of the 20 mg BID dose vs the 30 mg BID dose in patients weighing ≥100 kg” value ([1]; PASI50, PASI75, PASI90, weeks 4, 8, 12 and 16) of the same compound?
**A.** less efficacious

**Q.** And the “efficacy of the 20 mg BID dose vs the 30 mg BID dose in patients weighing <100 kg at baseline” value ([1]; PASI75 and in particular PASI90)?
**A.** (similar or) more efficacious

**Q.** And the “treatment effect versus placebo, percentage change in PASI from baseline to Week 16 (primary endpoint)” value ([1]; all doses (20, 30, 40 mg BID))?
**A.** statistically significant treatment effect

**Q.** And the PASI-75 responders [1, 3]?
**A.** 46%

**Q.** What about the PASI-90 responders [1, 3] of the same compound?
**A.** 29%

**Q.** What about the PASI-100 responders [1, 3] of the same compound?
**A.** 10%

**Q.** And the “efficacy (PASI50, PASI75, PASI90) of the 30 mg BID dose in patients weighing ≥100 kg compared to <100 kg at baseline” value ([1]; weeks 4, 8, 12 and 16)?
**A.** consistently higher

**Q.** And the AUC(0-t) [2]?
**A.** 167 ng·h/mL
